Laboratory results from the NIST ThermoML archive (doi:10.1016/j.jct.2012.01.022).
± gives the expanded uncertainty stated by the source.

Test: xn = mol fraction of the nth substance listed
Conditions: 101 kPa, Liquid; for speed of sound: Sing-around technique in a fixed-path interferometer; for mass density: Vibrating tube method; for viscosity: Capillary tube (Ostwald / Ubbelohde) method

NCCN [ethane-1,2-diamine] + CCCCCCO
Conditions | mass density, 293.15 K [kg/m3] | mass density, 298.15 K [kg/m3] | speed of sound, 293.15 K [m/s] | speed of sound, 298.15 K [m/s] | speed of sound, 303.15 K [m/s] | viscosity, 298.15 K [mPa·s] | viscosity, 303.15 K [mPa·s]
x1 = 0.0773 | 824.126 ± 0.39 | 820.463 ± 0.39 | 1338.6 ± 1.6 | 1321.6 ± 1.6 | 1304.6 ± 1.6 | 4.258 ± 0.039 | 3.578 ± 0.033
x1 = 0.1213 | – | – | – | – | 1314.9 ± 1.6 | 4.169 ± 0.038 | 3.551 ± 0.033
x1 = 0.1231 | 827.205 ± 0.38 | 823.489 ± 0.38 | 1348.9 ± 1.6 | 1331.9 ± 1.6 | – | – | –
x1 = 0.1604 | 829.772 ± 0.38 | 826.005 ± 0.38 | 1358.1 ± 1.6 | 1340.9 ± 1.6 | 1323.9 ± 1.6 | 4.072 ± 0.037 | 3.51 ± 0.032
x1 = 0.1925 | 831.826 ± 0.37 | 828.015 ± 0.37 | 1365.8 ± 1.6 | 1348.6 ± 1.6 | 1331.5 ± 1.6 | 4 ± 0.036 | 3.452 ± 0.031
x1 = 0.2525 | 835.69 ± 0.36 | 831.807 ± 0.36 | 1381 ± 1.5 | 1363.7 ± 1.5 | 1346.5 ± 1.5 | 3.832 ± 0.034 | 3.324 ± 0.03
x1 = 0.2907 | 837.925 ± 0.35 | 833.999 ± 0.35 | 1390.2 ± 1.5 | 1372.7 ± 1.5 | 1355.4 ± 1.5 | 3.72 ± 0.033 | 3.234 ± 0.029
x1 = 0.3942 | 844.247 ± 0.33 | 840.22 ± 0.33 | 1417.8 ± 1.5 | 1399.9 ± 1.5 | 1382.2 ± 1.5 | 3.357 ± 0.029 | 2.91 ± 0.025
x1 = 0.5086 | 851.229 ± 0.32 | 847.107 ± 0.31 | 1450.5 ± 1.4 | 1432.2 ± 1.4 | – | 2.926 ± 0.025 | 2.537 ± 0.022
x1 = 0.6059 | 857.577 ± 0.3 | 853.36 ± 0.3 | 1482.3 ± 1.4 | 1463.5 ± 1.4 | – | 2.528 ± 0.021 | 2.194 ± 0.019
x1 = 0.7125 | 865.791 ± 0.28 | 861.471 ± 0.28 | 1522.6 ± 1.4 | 1503.1 ± 1.4 | – | 2.149 ± 0.018 | 1.88 ± 0.016
x1 = 0.81 | 874.361 ± 0.27 | 869.926 ± 0.27 | 1569 ± 1.4 | 1548.7 ± 1.3 | – | 1.851 ± 0.015 | 1.612 ± 0.014
x1 = 0.8583 | 879.425 ± 0.26 | 874.936 ± 0.26 | 1596.2 ± 1.3 | 1575.4 ± 1.3 | – | 1.725 ± 0.014 | 1.506 ± 0.013
x1 = 0.9028 | 884.825 ± 0.25 | 880.277 ± 0.25 | 1623.9 ± 1.3 | 1602.8 ± 1.3 | – | 1.619 ± 0.014 | 1.428 ± 0.012
x1 = 0.945 | 890.109 ± 0.24 | 885.496 ± 0.24 | 1652.7 ± 1.3 | 1630.9 ± 1.3 | – | 1.536 ± 0.013 | 1.336 ± 0.012
